Measured values reported in the NIST ThermoML archive (doi:10.1016/j.jct.2011.04.010).

Experiments:
[1] = xn = mol fraction of the nth substance listed; details: 101 kPa, Liquid; for speed of sound: 298.15 K, Ecolab MPFU speed of sound meter; for mass density: Vibrating tube method
[2] = molar heat capacity at constant pressure; xn = mol fraction of the nth substance listed; details: 298.15 K, 101 kPa, Liquid, Flow calorimetry

COCCO [2-methoxyethan-1-ol] + CC#N
Details | molar heat capacity at constant pressure, [2] [J/K/mol] | speed of sound, [1] [m/s]
x1 = 0.0504 | 97.12 | –
x1 = 0.09833 | – | 1281.3
x1 = 0.1006 | 101.84 | –
x1 = 0.1504 | 106.53 | –
x1 = 0.1641 | 107.81 | –
x1 = 0.1936 | – | 1285.5
x1 = 0.1955 | 110.77 | –
x1 = 0.2 | 111.19 | –
x1 = 0.2999 | – | 1292.4
x1 = 0.3003 | 120.53 | –
x1 = 0.3989 | – | 1300.3
x1 = 0.4043 | 129.87 | –
x1 = 0.45 | 133.82 | –
x1 = 0.5007 | 138.04 | –
x1 = 0.5042 | – | 1309.5
x1 = 0.6021 | 146.04 | –
x1 = 0.605 | – | 1318.2
x1 = 0.6287 | 148.03 | –
x1 = 0.6497 | 149.58 | –
x1 = 0.7347 | – | 1328.4
x1 = 0.7453 | 156.4 | –
x1 = 0.7493 | 156.67 | –
x1 = 0.8295 | – | 1334.3
x1 = 0.9064 | 167.3 | –
x1 = 0.9177 | – | 1338.1
x1 = 0.9498 | 170.12 | –
x1 = 1 | 173.25 | 1339.7

mass density [kg/m3], [1]
Details | 308.15 K | 318.15 K
x1 = 0.00977 | – | 758.593
x1 = 0.00998 | 768.618 | –
x1 = 0.02023 | – | 761.593
x1 = 0.02137 | 771.87 | –
x1 = 0.0304 | – | 764.483
x1 = 0.03278 | 775.071 | –
x1 = 0.04029 | – | 767.262
x1 = 0.04058 | 777.238 | –
x1 = 0.04893 | – | 769.671
x1 = 0.0505 | 779.979 | –
x1 = 0.05932 | – | 772.54
x1 = 0.06681 | – | 774.593
x1 = 0.06827 | 784.813 | –
x1 = 0.07039 | 785.413 | –
x1 = 0.07541 | 786.728 | –
x1 = 0.07969 | – | 778.086
x1 = 0.091 | – | 781.124
x1 = 0.09332 | 791.503 | –
x1 = 0.1015 | – | 783.904
x1 = 0.1019 | 793.744 | –
x1 = 0.1512 | 806.368 | –
x1 = 0.1516 | – | 796.793
x1 = 0.195 | 817.055 | 807.486
x1 = 0.2495 | 829.827 | –
x1 = 0.2503 | – | 820.48
x1 = 0.2981 | 840.655 | –
x1 = 0.304 | – | 832.469
x1 = 0.4001 | 861.695 | –
x1 = 0.4012 | – | 852.641
x1 = 0.5006 | 880.458 | –
x1 = 0.5007 | – | 871.365
x1 = 0.6017 | 897.597 | –
x1 = 0.6038 | – | 888.921
x1 = 0.7031 | – | 904.33
x1 = 0.7041 | 913.484 | –
x1 = 0.8014 | – | 918.191
x1 = 0.8024 | 927.171 | –
x1 = 0.9034 | – | 931.153
x1 = 0.9066 | 940.325 | –
x1 = 0.9102 | 940.846 | –
x1 = 0.9133 | – | 932.346
x1 = 0.9213 | 942.098 | –
x1 = 0.9235 | – | 933.569
x1 = 0.9316 | 943.319 | –
x1 = 0.935 | – | 934.916
x1 = 0.9417 | 944.49 | –
x1 = 0.9434 | – | 935.911
x1 = 0.9524 | – | 936.96
x1 = 0.9528 | 945.766 | –
x1 = 0.9632 | 946.944 | –
x1 = 0.9635 | – | 938.217
x1 = 0.9702 | 947.731 | –
x1 = 0.9723 | – | 939.208
x1 = 0.9814 | 948.974 | 940.219
x1 = 0.9929 | – | 941.484
x1 = 0.9931 | 950.261 | –
x1 = 1 | 951.01 | 942.253

CC#N [acetonitrile] + COCCO
Details | speed of sound [m/s]
[1], x2 = 0 | 1279.6

[1], x2 = 0
Details | mass density [kg/m3]
308.15 K | 765.735
318.15 K | 755.763
